Consider 4 compounds from paper PMC6270201, “Eco-Friendly Synthesis and Antiproliferative Evaluation of Some Oxygen Substituted Diaryl Ketones” (Molecules, 2013).

One may read the melting point as the temperature, or range, at which the solid turns liquid. For orientation: GI50 means the concentration that inhibits growth by half.

The subject of data set [1] is DU-145 (prostate) human-derived tumor cell line. In words: MTT reduction antiproliferative assay, DU-145 prostate cells. Type of data set: cell-based. Particulars: 48 h incubation, mean of at least three experiments, read-out: EC50 ± SEM DU-145. The protocol:
(§1) The oxygen-substituted diaryl ketones 3–23 were evaluated for their in vitro antiproliferative activity on a panel of four cell lines, including non-tumor fibroblasts (Balb/3T3) and three human-derived tumor cell lines, namely DU-145 (prostate), T24 (bladder) and MCF7 (breast), using the conventional microculture tetrazolium reduction assay.
(§2) These values were calculated from their effects on MTT reduction in three cancer cell lines and Balb/3T3 non transformed mouse fibroblasts as a function of their concentration during 48 h of incubation. All three cancer cell lines were similarly sensitive to these compounds. […] The biological activity differences of compounds 12 and 22 with respect to their analogues could be attributed to the 3,4,5-trimethoxy substitution on the A-phenyl ring. According to literature precedents, the 3,4,5-trimethoxyphenyl ring is considered essential for the antitubulin activity of a broad variety of antimitotic compounds [36, 38, 39, 40, 41, 42, 43, 44, 45]. […] In this context, only compound 22 have a good mean selectivity index (2.45).
(§3) Human cancer cell lines (T24, DU-145, MCF7) were cultured in high-glucose Dulbecco's modified Eagle medium (Gibco, Grand Island, NY, USA) supplemented with 10% foetal calf serum, penicillin (100 U/mL), and streptomycin (100 μg/mL). Balb/3T3 cells (normal mouse fibroblasts) were cultured in the same medium, except that the foetal calf serum was replaced by 10% newborn calf serum. All cultures were kept at 37 °C in 95% air/5% CO2 at 100% humidity. Phosphate-buffered saline (PBS) was purchased from Gibco. Cells were incubated at the indicated times at 37 °C with or without hydroquinones at various concentrations.
(§4) The cytotoxicity of the bis aryl ketones was assessed by following the reduction of MTT (3-(4,5-dimethylthiazolyl-2)-2,5-diphenyltetrazolium bromide) to formazan blue. Briefly, cells were seeded into 96-well plates at a density of 10,000 cells/well for 24 h and then incubated for 48 h with or without the compounds. Cells were then washed twice with warm PBS and incubated with MTT (0.5 mg/mL) for 2 h at 37 °C. Incubation medium was thereafter discarded and the blue formazan crystals were solubilized by adding 100 μL DMSO/well. The colour solution was subsequently read at 550 nm. Results are expressed as % of MTT reduction compared to untreated control conditions. The calculation of EC50 values was performed by using GraphPad Prism software (San Diego, CA, USA).
For orientation: Formazan colour is commonly taken as a measure of viable cells.

Data set [2] relates to T24 (bladder) human-derived tumor cell line. In words: MTT reduction antiproliferative assay, T24 bladder cells. It is filed as cell-based. As to conditions: 48 h incubation, mean of at least three experiments, read-out: EC50 ± SEM T24. How it is done: as §1, §2, §3, §4
Data set [3] deals with MCF7 (breast) human-derived tumor cell line. In words: MTT reduction antiproliferative assay, MCF7 breast cells. As to conditions: 48 h incubation, mean of at least three experiments, read-out: EC50 ± SEM MCF-7. It is filed as cell-based. How it is done:
as §1, §2, §3, §4

Data set [4] relates to Balb/3T3 non-tumor fibroblasts. In words: MTT reduction assay, non-tumor fibroblasts. Type of data set: cell-based. Particulars: Mus musculus, 48 h incubation, mean of at least three experiments, read-out: EC50 ± SEM BALB/3T3. The protocol:
as §1, §2, §3, §4

Data set [5] relates to Balb/3T3 fibroblasts vs T24, DU-145 and MCF7 tumor cells. In words: Mean selective index, fibroblasts versus tumor cells. Type of data set: cell-based. As to conditions: EC50 values fibroblasts/EC50 values tumor cells. How it is done: These values were calculated from their effects on MTT reduction in three cancer cell lines and Balb/3T3 non transformed mouse fibroblasts as a function of their concentration during 48 h of incubation.

In data set [6] the test system is NCI screen panel. On the set-up: method as in PMID 9572894. As to conditions: read-out: mean panel GI50 (growth inhibitory) value; cited from earlier work.

Compound `COc1cc(C(=O)c2cc(O)c3ccccc3c2O)ccc1O` [compound 21, (1,4-Dihydroxynaphthalen-2-yl)(4'-hydroxy-3'-methoxyphenyl)methanone] returned a melting point of 221 to 222 °C. Further, the EC50 in data set [1] was determined as 89 ± 7.3 µM. For the same compound, the EC50 in data set [2] is 86.6 ± 9.6 µM. For the same compound, the EC50 in data set [3] worked out at 15.7 ± 4.6 µM. In addition, in data set [4], the EC50 worked out at 15.7 ± 3.9 µM. Also, the “MSI: Mean Selective Index” value in data set [5] was 0.45.

`COc1cc(C(=O)c2cc(O)c3ccccc3c2O)cc(OC)c1OC` [compound 22, (1,4-Dihydroxynaphthalen-2-yl)(3',4',5'-trimethoxyphenyl)methanone] yielded a melting point of 189 to 191 °C. Besides, in data set [1], the EC50 amounted to 5.9 ± 0.8 µM. Further, in data set [2], the EC50 was determined as 13.5 ± 1.9 µM. For the same compound, the EC50 in data set [3] amounted to 20.2 ± 4.5 µM. The EC50 in data set [4] came out at 25.1 ± 3.9 µM. The “MSI: Mean Selective Index” value in data set [5] is 2.45.

With `COc1cc(C(=O)c2cc(O)c3ccccc3c2O)cc(OC)c1O` [compound 23, (1,4-Dihydroxynaphthalen-2-yl)(4'-hydroxy-3',5'-dimethoxyphenyl)methanone], the melting point was 173 to 174 °C. For the same compound, the EC50 in data set [1] was determined as 114 ± 9.5 µM. In addition, in data set [2], the EC50 stood at 112 ± 9.3 µM. Moreover, in data set [3], the EC50 came to 130 ± 14.8 µM. In addition, the EC50 in data set [4] stood at 99.6 ± 7.5 µM. Further, the “MSI: Mean Selective Index” value in data set [5] is 0.84.

For the compound `COc1ccc(C(=O)c2cc(OC)c(OC)c(OC)c2)cc1O` [phenstatin], in data set [6], the GI50 is 0.0601 µM.
